The term Kd denotes the free concentration of one partner at which half of the binding sites on the other are occupied at equilibrium, for simple one-to-one binding.

SMILES strings stand for the structures.

The target in one assay is T1, recombinant human VDAC1 (hVDAC1) (Homo sapiens, UniProt P21796).
T1 construct: His (N); GST (N); purchased LSBio LS-G25810; host or cells: E. coli
T1 sequence (P21796 whole entry): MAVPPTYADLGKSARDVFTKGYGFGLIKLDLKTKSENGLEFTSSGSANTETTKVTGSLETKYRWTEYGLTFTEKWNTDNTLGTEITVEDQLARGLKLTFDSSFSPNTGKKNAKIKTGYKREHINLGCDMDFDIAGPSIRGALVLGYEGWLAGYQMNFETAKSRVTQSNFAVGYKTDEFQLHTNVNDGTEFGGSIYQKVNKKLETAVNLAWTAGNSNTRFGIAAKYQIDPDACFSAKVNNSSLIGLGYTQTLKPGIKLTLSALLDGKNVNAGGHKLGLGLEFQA
Briefly: Microscale Thermophoresis (MST) binding assay with labeled VDAC1. The settings on record: MST plot of FIG. 1. An excerpt:
MicroScale Thermophoresis (MST) is a biophysical technique that measures the strength of interaction (affinity) between two molecules by detecting variations in fluorescence signal as a result of an IR-laser induced temperature change. The range of the variation in the fluorescence signal correlates with the binding of a ligand to a fluorescent target. By that it allows for quantitative analysis of molecular interactions in solution on the microliter scale with high sensitivity.The MST signal is composed of two major factors: The TRIC effect and the thermophoresis. TRIC stands for Temperature-Related Intensity-Change and describes how the fluorescence intensity of a fluorophore depends on the local temperature of the solution. For the vast majority of fluorophores, the fluorescence intensity decreases with increasing temperature. Most importantly, however, the extent of the temperature dependence is strongly related to the chemical environment of the fluorophore. This environment is sensitively affected by the binding of a ligand molecule to the fluorescently labeled target molecule (via conformational changes or ligand-dye proximity). The second component of the MST-signal, the thermophoresis describes the movement of molecules along temperature gradients which results in a quantifiable change of the local concentration of the target molecules. As these target molecules are fluorescently labeled in MST, such concentration changes can be monitored simply by fluorescence measurements. This directed movement of molecules depends on their molecular size, charge, and hydration shell. Binding of a ligand to a target molecule leads to the change of at least one of these parameters and therefore to an altered thermophoretic movement of the target-ligand complex compared to the single molecules alone. In sum, both TRIC and thermophoresis contribute to the overall MST-signal, which is detected by fluorescence measurement. Due to this robust physical principle and direct monitoring, MST can be used for determining the affinity and binding strength of almost any kind of molecular interaction or modification of small molecules, proteins, peptides, DNA, sugars, or molecular complexes.
Reconstituted N-terminal His-GST tagged E. coli recombinant human VDAC1 (hVDAC1) was buffer exchanged into protein labeling buffer due to the primary amine of the Tris lyophilization buffer interferes with NHS-based labeling. The labeling buffer was kept as close to the storage buffer of the target protein as given on the protein data sheet (LSBio LS-G25810). Tris was replaced by HEPES. PLURONIC® F-127 was added to 0.05% in order to enhance protein recovery in the final dye removal step. The total volume of the labeling batch was 100 µL. The labeling time was 30 minutes. The labeling reaction was performed at room temperature. Any unbound or unreacted dye was separated from the labeled protein on a gravity-flow gel-filtration column (GE Healthcare, PD Minitrap G-25, GE28-9180-07). The final target buffer was kept as close to the original protein storage buffer as possible. It contained Tris again instead of HEPES.
The first step of the technical assay establishment was a so-called “noise test”. In this test, the intrinsic MST-noise of the labeled target protein was tested. Subsequently, a reference compound or positive control (CAS number: 2086257-77-2) was characterized to confirm previously reported VDAC1 binding (Zhang et al (2019)). Preserving Insulin Secretion in Diabetes by Inhibiting VDAC1 Overexpression and Surface Translocation in β Cells″. Cell Metabolism 29, 64-77.). In short, serial dilutions of the compound having CAS number: 2086257-77-2 was prepared in a way to match the final buffer conditions in the reaction mix (assay buffer). The highest concentration of ligand was 10.0 mM and the lowest 4.88 µM. A total of 12 dilution steps were prepared. […]
Background: MST reads how a fluorescent partner responds to local heating, with and without ligand.
On to `O=C(CC(CO)N1CC2=C(CN(c3ccc(OC(F)(F)F)cc3)C2)C1)Nc1ccc(Cl)cc1` (centres unmarked) [Example 4, N-(4-chlorophenyl)-4-hydroxy-3-{5-[4-(trifluoromethoxy)phenyl]-1H,2H,3H,4H,5H,6H-pyrrolo[3,4-c]pyrrol-2-yl}butanamide], for which the “S/N of MST plot” value came to 20.1 and the “dFnorm of MST plot” value was 23.9.

Still in this assay, the particulars now being: MST, 5 nM labeled VDAC1, 25° C., 12-point dilution 100-0.04 µM; read-out: VDAC1 affinity (KD).
With `O=C(CC(CO)N1CCCN(c2ccc(OC(F)(F)F)cc2)CC1)Nc1ccc(Cl)cc1` (centres unmarked) [Example 3, N-(4-chlorophenyl)-4-hydroxy-3-{4-[4-(trifluoromethoxy)phenyl]-1,4-diazepan-1-yl}butanamide], the Kd was 5.2 µM.
On the same count and under the same terms, under `O=C(CC(CO)N1CCCC(C2CN(c3ccc(OC(F)(F)F)cc3)C2)C1)Nc1ccc(Cl)cc1` (centres unmarked) [Example 6, N-(4-chlorophenyl)-4-hydroxy-3-(3-{1-[4-(trifluoromethoxy)phenyl]azetidin-3-yl}piperidin-1-yl)butanamide] stands 9.8 µM; under `O=C(CC(CO)N1CC2=C(CN(c3ccc(OC(F)(F)F)cc3)C2)C1)Nc1ccc(Cl)cc1` (centres unmarked) [Example 4, N-(4-chlorophenyl)-4-hydroxy-3-{5-[4-(trifluoromethoxy)phenyl]-1H,2H,3H,4H,5H,6H-pyrrolo[3,4-c]pyrrol-2-yl}butanamide], 5.1 µM.
The same measure, in the same setting: under `O=C(CC(CO)N1CC2(CCN(c3ccc(OC(F)(F)F)cc3)C2)C1)Nc1ccc(Cl)cc1` (centres unmarked) [Example 7, N-(4-chlorophenyl)-4-hydroxy-3-{6-[4-(trifluoromethoxy)phenyl]-2,6-diazaspiro[3.4]octan-2-yl}butanamide] stands 13.1 µM; under `O=C(CC(CO)N1CCCC2(CCCN(c3ccc(OC(F)(F)F)cc3)C2)C1)Nc1ccc(Cl)cc1` (centres unmarked) [Example 10, N-(4-chlorophenyl)-4-hydroxy-3-{8-[4-(trifluoromethoxy)phenyl]-2,8-diazaspiro[5.5]undecan-2-yl}butanamide], 1.9 µM; under `O=C(CC(CO)N1CCOC2(CCN(c3ccc(OC(F)(F)F)cc3)C2)C1)Nc1ccc(Cl)cc1` (centres unmarked) [Example 5, N-(4-chlorophenyl)-4-hydroxy-3-{2-[4-(trifluoromethoxy)phenyl]-6-oxa-2,9-diazaspiro[4.5]decan-9-yl}butanamide], 3.8 µM.
For the compound `O=C(CC(CO)N1CC2CN(c3ccc(OC(F)(F)F)cc3)CC2C1)Nc1ccc(Cl)cc1` (centres unmarked) [Example 9, N-(4-chlorophenyl)-4-hydroxy-3-{5-[4-(trifluoromethoxy)phenyl]-octahydropyrrolo[3,4-c]pyrrol-2-yl}butanamide], the Kd amounted to 11.4 µM.
Same read-out and setting: under `O=C(NCC(CO)N1CCN(c2ccc(OC(F)(F)F)cc2)CC1)c1ccc(Cl)cc1` (centres unmarked) [Example 1, 4-chloro-N-(3-hydroxy-2-{4-[4-(trifluoromethoxy)phenyl]piperazin-1-yl}propyl)benzamide] stands 12 µM; under `O=C(CC(CO)N1CCN(c2ccc(OC(F)(F)F)cc2)CC1)Nc1ccc(Cl)cc1` (centres unmarked) [CAS: 2086257-77-2, N-(4-chlorophenyl)-4-hydroxy-3-{4-[4-(trifluoromethoxy)phenyl]piperazin-1-yl}butanamide, reference compound], 14 µM; under `O=C(CC(CCO)N1CCN(c2ccc(OC(F)(F)F)cc2)CC1)Nc1ccc(Cl)cc1` (centres unmarked) [Example 2, N-(4-chlorophenyl)-5-hydroxy-3-{4-[4-(trifluoromethoxy)phenyl]piperazin-1-yl}pentanamide], 8.4 µM.
Still for that read-out and setting: under `O=C(CC(CO)N1CCCC2C1CCN2c1ccc(OC(F)(F)F)cc1)Nc1ccc(Cl)cc1` (centres unmarked) [Example 8, N-(4-chlorophenyl)-4-hydroxy-3-{1-[4-(trifluoromethoxy)phenyl]-octahydro-1H-pyrrolo[3,2-b]pyridin-4-yl}butanamide] stands 2.8 µM.

For another assay, the system named is islets of human T2D organ donors.
Assay: not given
To be noted: acute exposure of the T2D islets; cited from earlier work.
On to `O=C(CC(CO)N1CCN(c2ccc(OC(F)(F)F)cc2)CC1)Nc1ccc(Cl)cc1` (centres unmarked) [CAS: 2086257-77-2, N-(4-chlorophenyl)-4-hydroxy-3-{4-[4-(trifluoromethoxy)phenyl]piperazin-1-yl}butanamide, reference compound], for which the “glucose-stimulated insulin secretion (GSIS)” value is “restored GSIS”.
